Data: patent publication US11672871B2, “Peptide oligonucleotide conjugates” (Sarepta Therapeutics, Inc., priority 2015, dated 2023)

Tested on: HeLa-654 cells
Test: HeLa cell assay: e-GFP fluorescence from exon skipping / cellular delivery, by flow cytometry
Assay type: cell-based
Conditions: Accuri C6 flow cytometer, signal reflects exon skipping and cellular uptake
Description: The height of the green fluorescent signal bars indicate different intensities based on the level of exon skipping that occurs in the nucleus of HeLa-654 cells, whether the cells are treated or untreated with test compounds. The signal intensity or size of the bar also corresponds to the effectiveness of cellular uptake (that is, delivery into the cell). […] The various treatment regimens include continuous treatment of HeLa-654 cells over time or pulse-chase treatments where a test compound is incubated with cells and then after a period of time (3 hours) is washed away from the cells and fresh, test compound-free media is added.
Results: The baseline activity of unconjugated PMO and untreated cells is shown. The peptide/PMO (PPMO) conjugates of the present disclosure all show greater cellular uptake than: 1) unconjugated PMO, and 2) untreated cells (which reveal the green fluorescent background signal). This difference in fluorescence intensity between the peptide/PMO conjugates of the present invention and the background or unconjugated-PMO indicates significant pharmacological activity of the stapled peptide/PMO conjugates.

PPMO 3: (i, i+4) hexafluorobenzene-stapled peptide-PMO conjugate, sequence SEQ ID NO: 9 (GCTATTACCTTAACCCAG; all phosphorodiamidate morpholino (PMO); stapled cell-penetrating peptide conjugated to PMO)
Mean FL1-H (mean fluorescence intensity of e-GFP): 123,401.08
